Patent US8163960B2, “Process for preparing and drying solid rasagiline base” (Teva Pharmaceutical Industries, Ltd., priority 2008, dated 2012)
Values after ≈ are worked out from the molar mass of the structure shown. Like-named read-outs stand apart in the source and are kept apart here.

Columns and labels:
[1] = Description: Approximately four (4) grams of rasagiline base was introduced into the sublimation reservoir of a standard Sigma-Aldrich glass sublimation apparatus, (Cat. No. Z221171-1EA) with internal diameter of 3 cm. The apparatus was equipped with vacuum pump, vacuumeter and circulating ice-water bath for cooling of the apparatus' sublimation head. The apparatus was then closed and circulation of coolant at 0 to 1° C. was started. The vacuum was then built to a pressure (“P”) of 2-3 mbar and the reservoir was introduced into thermostatic water bath maintained at temperature (“T”) of 21° C.
The process was controlled by visual observation of the sublimed solid forming on the sublimation head. After sublimation completed the operation time was recorded, the apparatus was opened and the sublimed solid was removed from the head and weighed.
The mean sublimation rate was calculated as follows:
Mean Sublimation Rate Rs1: Rs1=m/M·t [gg^−1hr^−1]
Mean Sublimation Rate Rs2: Rs2=m/S·t [gm^−2hr^−1]
Mean Relative Sublimation Rate R: R=m·100/M·t [%/hr] m—mass of sublimed material, g M—mass of starting material, g t=sublimation time, hrs S=sublimation area (apparatus section area), m^2

[2] = for Description: wet with water, RT, protected from light
Description: Rasagiline Base wet with water produced in Example […] was stored at ambient temperature (RT) in polyethylene bag inside aluminium laminate bag protected from light. The solid was sampled, dried to constant weight under vacuum and analyzed. The sampling and analysis were performed at time zero, than after 2 weeks and 4 weeks from zero time.

[3] = low levels of volatiles by KF and TGA
physchem = details: 25 °C, pH 11, water
[4] = alcohols, acetone, ethyl acetate, toluene, diethyl ether, dioxane, hexane and n-heptane
[5] = 48 hrs in air; 7-8° C. or ambient temperature
Description: Two batches of Rasagiline base were prepared in order to simulate the storage of Rasagiline base in ethanol solution at different temperatures.
17.0 g of Rasagiline base oil was dissolved in 17 g absolute ethanol. The resulting solution was introduced into refrigerator and stored at 7-8° C. for 48 hrs. The ethanol solution was sampled (sample 1).
The reactor was cooled (Tj=11° C.) and 8 g of water was introduced at stirring. Then the solution was seeded with solid Rasagiline base and crystallization was observed. The batch was stirred for 15 min at 11-12° C. and then 33.8 g of water was added. The resulting suspension was cooled to 4° C. and stirred at 1-4° C. for 30 min. The solid was filtered and washed twice with 17 ml water. Wet solid product (17.6 g) was dried under vacuum.
17.0 g of Rasagiline base oil was dissolved in 17 g absolute ethanol. The resulting solution was stored at ambient temperature (20-28° C.) for 48 hrs. The ethanol solution was sampled (sample 1).
The reactor was cooled (Tj=11° C.) and 8 g of water was introduced at stirring. Then the solution was seeded with solid Rasagiline base and crystallization was observed. The batch was stirred for 20 min at 11-12° C. and then 33.8 g water was added. The resulting suspension was cooled to 4° C. and stirred at 1-4° C. for 30 min. The batch was filtered and washed twice with 17 ml water. […]

[6] = Ex. 12, solid, 2-3 mbar, 21 °C, 8.0 hr
[7] = Ex. 13, solid, 2-3 mbar, 35 °C, 5.33 hr
[8] = Ex. 14, melt, 2-3 mbar, 60 °C, 4.0 hr
[9] = Ex. 15, solid, 20 mbar, 21 °C, 8.5 hr
[10] = Ex. 16, solid, 40 mbar, 21 °C, 8.5 hr
[11] = Ex. 17, solid, 40 mbar, 35 °C, 5.33 hr
[12] = Ex. 18, solid, 20 mbar, 35 °C, 5.33 hr
[13] = Ex. 19, melt, 40 mbar, 60 °C, 5.33 hr
[14] = Ex. 20, melt, 20 mbar, 60 °C, 5.33 hr

C#CCN[C@@H]1CCc2ccccc21 [rasagiline base, R(+)-N-propargyl-1-aminoindan]
Mean relative sublimation rate R [1, 6]: 0.0312 %/hr
Mean sublimation rate Rs1 [1, 6]: 3.12e-05 g/g/h
Mean sublimation rate Rs2 [1, 6]: 1.333 g/hr/m^2
Sublimed solid fraction [1, 6]: 0.25%
−log Rs1 [1, 6]: 4.5
Mean relative sublimation rate R [1, 7]: 0.116 %/hr
Mean sublimation rate Rs1 [1, 7]: 0.00117 g/g/h
Mean sublimation rate Rs2 [1, 7]: 4.978 g/hr/m^2
Sublimed solid fraction [1, 7]: 0.62%
−log Rs1 [1, 7]: 2.93
Mean relative sublimation rate R [1, 8]: 5.6 %/hr
Mean sublimation rate Rs1 [1, 8]: 0.0562 g/g/h
Mean sublimation rate Rs2 [1, 8]: 236.19 g/hr/m^2
Sublimed solid fraction [1, 8]: 22.4%
−log Rs1 [1, 8]: 1.25
Mean relative sublimation rate R [1, 9]: 0.0 %/hr
Mean sublimation rate Rs1 [1, 9]: 0.0 g/g/h
Mean sublimation rate Rs2 [1, 9]: 0.0 g/hr/m^2
Sublimed solid fraction [1, 9]: 0.0%
Mean relative sublimation rate R [1, 10]: 0.0 %/hr
Mean sublimation rate Rs1 [1, 10]: 0.0 g/g/h
Mean sublimation rate Rs2 [1, 10]: 0.0 g/hr/m^2
Sublimed solid fraction [1, 10]: 0.0%
Mean relative sublimation rate R [1, 11]: 0.0375 %/hr
Mean sublimation rate Rs1 [1, 11]: 0.000375 g/g/h
Mean sublimation rate Rs2 [1, 11]: 1.593 g/hr/m^2
Sublimed solid fraction [1, 11]: 0.20%
−log Rs1 [1, 11]: 3.42
Mean relative sublimation rate R [1, 12]: 0.0506 %/hr
Mean sublimation rate Rs1 [1, 12]: 0.000515 g/g/h
Mean sublimation rate Rs2 [1, 12]: 2.192 g/hr/m^2
Sublimed solid fraction [1, 12]: 0.27%
−log Rs1 [1, 12]: 3.29
Mean relative sublimation rate R [1, 13]: 0.116 %/hr
Mean sublimation rate Rs1 [1, 13]: 0.00117 g/g/h
Mean sublimation rate Rs2 [1, 13]: 4.978 g/hr/m^2
Sublimed solid fraction [1, 13]: 0.62%
−log Rs1 [1, 13]: 2.93
Mean relative sublimation rate R [1, 14]: 0.769 %/hr
Mean sublimation rate Rs1 [1, 14]: 0.00764 g/g/h
Mean sublimation rate Rs2 [1, 14]: 32.26 g/hr/m^2
Sublimed solid fraction [1, 14]: 4.1%
−log Rs1 [1, 14]: 2.12
Assay by HPLC ([2]; 2 weeks): 100.5 % on dry basis
Enantiomeric purity by HPLC (S-isomer) ([2]; 2 weeks): L.T. 0.1%
ID by HPLC ([2]; 2 weeks): Conforms
IDD by HPLC: 1-Aminoindan ([2]; 2 weeks): L.T. 0.02%
IDD by HPLC: 1-Indanone ([2]; 2 weeks): L.T. 0.02%
IDD by HPLC: 3-PAIO ([2]; 2 weeks): L.T. 0.02%
IDD by HPLC: Any other ([2]; 2 weeks): L.T. 0.02%
IDD by HPLC: Total ([2]; 2 weeks): L.T. 0.02%
Water content by CKF ([2]; 2 weeks): 0.04%
Assay by HPLC ([2]; 4 weeks): 100.7 % on dry basis
Enantiomeric purity by HPLC (S-isomer) ([2]; 4 weeks): L.T. 0.1%
ID by HPLC ([2]; 4 weeks): Conforms
IDD by HPLC: 1-Aminoindan ([2]; 4 weeks): L.T. 0.02%
IDD by HPLC: 1-Indanone ([2]; 4 weeks): L.T. 0.02%
IDD by HPLC: 3-PAIO ([2]; 4 weeks): L.T. 0.02%
IDD by HPLC: Any other ([2]; 4 weeks): L.T. 0.02%
IDD by HPLC: Total ([2]; 4 weeks): L.T. 0.02%
Water content by CKF ([2]; 4 weeks): 0.03%
Assay by HPLC ([2]; Start (t = 0)): 100.1 % on dry basis
Enantiomeric purity by HPLC (S-isomer) ([2]; Start (t = 0)): L.T. 0.1%
ID by HPLC ([2]; Start (t = 0)): Conforms
IDD by HPLC: 1-Aminoindan ([2]; Start (t = 0)): L.T. 0.02%
IDD by HPLC: 1-Indanone ([2]; Start (t = 0)): L.T. 0.02%
IDD by HPLC: 3-PAIO ([2]; Start (t = 0)): L.T. 0.02%
IDD by HPLC: Any other ([2]; Start (t = 0)): L.T. 0.02%
IDD by HPLC: Total ([2]; Start (t = 0)): L.T. 0.02%
Water content by CKF ([2]; Start (t = 0)): 0.04%
Time limitation ([2]; Storage temperature +2-+8° C.): One month
Description ([2]; 2 weeks): White solid
Description ([2]; 4 weeks): White solid
Description ([2]; Start (t = 0)): White solid
hygroscopicity [3]: not hygroscopic
solubility (physchem): 5500 µg/mL (≈ 32.1 mM)
solubility in organic solvents [4]: freely soluble
effect of holding as ethanol solution on yield and quality of solid product [5]: do not affect the yield and quality of solid product
